Experiments:
Format in all cases: in vivo
[1] = tested on: chickweed (Stellaria media); assay: Test C postemergence
Description: (§1) Seeds of plant species selected from bermudagrass (Cynodon dactylon), Surinam grass (Brachiaria decumbens), cocklebur (Xanthium strumarium), corn (Zea mays), crabgrass (Digitaria sanguinalis), woolly cupgrass (Eriochloa villosa), giant foxtail (Setaria faberii), goosegrass (Eleusine indica), johnsongrass (Sorghum halepense), kochia (Kochia scoparia), lambsquarters (Chenopodium album), morningglory (Ipomoea hederacea), yellow nutsedge (Cyperus esculentus), pigweed (Amaranthus retroflexus), common ragweed (Ambrosia elatior), soybean (Glycine max) and velvetleaf (Abutilon theophrasti) were planted and treated preemergence with test chemicals formulated in a non-phytotoxic solvent mixture which included a surfactant.
(§2) At the same time, plants selected from these crop and weed species and also winter barley (Hordeum vulgare), blackgrass (Alopecurus myosuroides), canary grass (Phalaris minor), chickweed (Stellaria media), downy brome (Bromus tectorum), green foxtail (Setaria viridis), Italian ryegrass (Lolium multiflorum), wheat (Triticum aestivum), wild oat (Avena fatua) and windgrass (Apera spica-venti) were treated with postemergence applications of some of the test chemicals formulated in the same manner. Plants ranged in height from 2 to 18 cm (1- to 4-leaf stage) for postemergence treatments. Plant species in the flooded paddy test consisted of rice (Oryza saliva), smallflower flatsedge (Cyperus difformis), duck salad (Heteranthera limosa) and barnyardgrass (Echinochloa crus-galli) grown to the 2-leaf stage for testing. Treated plants and controls were maintained in a greenhouse for 12 to 14 days, after which time all species were compared to controls and visually evaluated. Plant response ratings, summarized in Table C, are based on a scale of 0 to 100 where 0 is no effect and 100 is complete control. A dash (-) response means no test result.

[2] = tested on: yellow nutsedge (Cyperus esculentus); assay: Test C postemergence
Description: as §1, §2

[3] = tested on: Surinam grass (Brachiaria decumbens); assay: Test C postemergence
Description: as §1, §2

[4] = tested on: bermudagrass (Cynodon dactylon); assay: Test C postemergence
Description: as §1, §2

[5] = tested on: pigweed (Amaranthus retroflexus); assay: Test C postemergence
Description: as §1, §2

[6] = tested on: morningglory (Ipomoea hederacea); assay: Test C postemergence
Description: as §1, §2

[7] = tested on: johnsongrass (Sorghum halepense); assay: Test C postemergence
Description: as §1, §2

[8] = tested on: cocklebur (Xanthium strumarium); assay: Test C postemergence
Description: as §1, §2

[9] = tested on: giant foxtail (Setaria faberii); assay: Test C postemergence
Description: as §1, §2

[10] = tested on: common ragweed (Ambrosia elatior); assay: Test C postemergence
Description: as §1, §2

[11] = tested on: kochia (Kochia scoparia); assay: Test C postemergence
Description: as §1, §2

[12] = tested on: corn (Zea mays); assay: Test C postemergence
Description: as §1, §2

[13] = tested on: crabgrass (Digitaria sanguinalis); assay: Test C postemergence
Description: as §1, §2

[14] = tested on: woolly cupgrass (Eriochloa villosa); assay: Test C postemergence
Description: as §1, §2

[15] = tested on: rice (Oryza saliva); assay: Test C flooded paddy test; conditions: for Rice plant response rating: Flooded Paddy, scale 0 to 100, 0 no effect, 100 complete control; for Plant response rating, Rice: flooded paddy test, scale 0 to 100 (0 no effect, 100 complete control)
In short: (§3)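 Rice and three paddy weeds were grown to the 2-leaf stage under flooded conditions, then treated and kept in a greenhouse for 12–14 days. Response was rated visually against untreated controls on a 0–100 scale, where 100 is complete control.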

[16] = tested on: barnyardgrass (Echinochloa crus-galli); assay: Test C flooded paddy test; conditions: for Barnyardgrass plant response rating: Flooded Paddy, scale 0 to 100, 0 no effect, 100 complete control; for Plant response rating, Barnyardgrass: flooded paddy test, scale 0 to 100 (0 no effect, 100 complete control)
In short: as §3

[17] = tested on: duck salad (Heteranthera limosa); assay: Test C flooded paddy test; conditions: for Ducksalad plant response rating: Flooded Paddy, scale 0 to 100, 0 no effect, 100 complete control; for Plant response rating, Ducksalad: flooded paddy test, scale 0 to 100 (0 no effect, 100 complete control)
In short: as §3

[18] = Rate 125 g/ha, scale 0 to 100, 0 no effect, 100 complete control
[19] = Rate 250 g/ha, scale 0 to 100 (0 no effect, 100 complete control)
[20] = Rate 500 g/ha, scale 0 to 100 (0 no effect, 100 complete control)

Structure (SMILES): O=C1C(n2ccc(C3CCC3)n2)SCN1c1cccc(OC(F)(F)F)c1 (centres unmarked) [Compound 38]
- Plant response rating, Chickweed ([1]; Rate 62 g/ha, scale 0 to 100): 0
- Plant response rating, Chickweed [1, 18]: 0
- Plant response rating, Chickweed [1, 19]: 0
- Plant response rating, Chickweed [1, 20]: 0
- Plant response rating, Nutsedge ([2]; Rate 62 g/ha, scale 0 to 100): 0
- Plant response rating, Nutsedge [2, 18]: 0
- Plant response rating, Nutsedge [2, 19]: 0
- Plant response rating, Nutsedge [2, 20]: 0
- Plant response rating, Surinam grass ([3]; Rate 62 g/ha, scale 0 to 100): 0
- Plant response rating, Surinam grass [3, 18]: 0
- Plant response rating, Surinam grass [3, 19]: 0
- Plant response rating, Surinam grass [3, 20]: 0
- Plant response rating, Bermudagrass ([4]; Rate 62 g/ha, scale 0 to 100): 0
- Plant response rating, Bermudagrass [4, 18]: 0
- Plant response rating, Bermudagrass [4, 19]: 30
- Plant response rating, Bermudagrass [4, 20]: 70
- Plant response rating, Pigweed ([5]; Rate 62 g/ha, scale 0 to 100): 0
- Plant response rating, Pigweed [5, 18]: 0
- Plant response rating, Pigweed [5, 19]: 0
- Plant response rating, Pigweed [5, 20]: 0
- Plant response rating, Morningglory ([6]; Rate 62 g/ha, scale 0 to 100): 0
- Plant response rating, Morningglory [6, 18]: 0
- Plant response rating, Morningglory [6, 19]: 0
- Plant response rating, Morningglory [6, 20]: 20
- Plant response rating, Johnsongrass ([7]; Rate 62 g/ha, scale 0 to 100): 0
- Plant response rating, Johnsongrass [7, 18]: 0
- Plant response rating, Johnsongrass [7, 19]: 0
- Plant response rating, Johnsongrass [7, 20]: 30
- Plant response rating, Cocklebur ([8]; Rate 62 g/ha, scale 0 to 100): 0
- Plant response rating, Cocklebur [8, 18]: 0
- Plant response rating, Cocklebur [8, 19]: 0
- Plant response rating, Cocklebur [8, 20]: 20
- Plant response rating, Foxtail, Giant ([9]; Rate 62 g/ha, scale 0 to 100): 0
- Plant response rating, Foxtail, Giant [9, 18]: 0
- Plant response rating, Foxtail, Giant [9, 19]: 0
- Plant response rating, Foxtail, Giant [9, 20]: 0
- Plant response rating, Ragweed, Common ([10]; Rate 62 g/ha, scale 0 to 100): 0
- Plant response rating, Ragweed, Common [10, 18]: 0
- Plant response rating, Ragweed, Common [10, 19]: 40
- Plant response rating, Ragweed, Common [10, 20]: 40
- Plant response rating, Kochia ([11]; Rate 62 g/ha, scale 0 to 100): 60
- Plant response rating, Kochia [11, 18]: 60
- Plant response rating, Kochia [11, 19]: 70
- Plant response rating, Kochia [11, 20]: 70
- Plant response rating, Corn ([12]; Rate 62 g/ha, scale 0 to 100): 0
- Plant response rating, Corn [12, 18]: 0
- Plant response rating, Corn [12, 19]: 0
- Plant response rating, Corn [12, 20]: 0
- Plant response rating, Crabgrass ([13]; Rate 62 g/ha, scale 0 to 100): 0
- Plant response rating, Crabgrass [13, 18]: 0
- Plant response rating, Crabgrass [13, 19]: 0
- Plant response rating, Crabgrass [13, 20]: 30
- Plant response rating, Cupgrass, Woolly ([14]; Rate 62 g/ha, scale 0 to 100): 0
- Plant response rating, Cupgrass, Woolly [14, 18]: 0
- Plant response rating, Cupgrass, Woolly [14, 19]: 0
- Plant response rating, Cupgrass, Woolly [14, 20]: 0
- Rice plant response rating ([15]; Rate 250 g/ha): 50
- Rice plant response rating ([15]; Rate 500 g/ha): 80
- Plant response rating, Rice ([15]; Rate 62 g/ha): 20
- Plant response rating, Rice ([15]; Rate 125 g/ha): 30
- Barnyardgrass plant response rating ([16]; Rate 250 g/ha): 100
- Barnyardgrass plant response rating ([16]; Rate 500 g/ha): 100
- Plant response rating, Barnyardgrass ([16]; Rate 62 g/ha): 100
- Plant response rating, Barnyardgrass ([16]; Rate 125 g/ha): 100
- Ducksalad plant response rating ([17]; Rate 250 g/ha): 90
- Ducksalad plant response rating ([17]; Rate 500 g/ha): 80
- Plant response rating, Ducksalad ([17]; Rate 62 g/ha): 50
- Plant response rating, Ducksalad ([17]; Rate 125 g/ha): 90
